# Like-named read-outs stand apart in the source and are kept apart here.
# Assays:
# [1] = tested on: human epithelial cells; assay: Gene Set Enrichment Analysis (GSEA) of microarray data (GSE117351), antiviral pathways; type: cell-based; design: key: ^..: the effect is absent
# [2] = very high doses (3-60 μg/kg); cited from earlier work
# [3] = target: SARS-CoV-2 RdRP (Severe acute respiratory syndrome coronavirus 2 (2019-nCoV) (SARS-CoV-2), UniProt P0DTD1); assay: Enzymatic assay for RdRP (AlphaScreen, BPS Biosciences); type: biochemical
# Procedure: Min=negative control without any enzyme (0% enzyme activity), Max=positive control with enzyme and substrate (100% enzyme activity). […] The statistical significance of differences was evaluated by one-way ANOVA, *p<0.05, **p<0.01, ***p<0.001, for all conditions relative to the ethanol blank, n=3. […] Min=negative control without any enzyme (0% enzyme activity), Max=positive control with enzyme and substrate (100% enzyme activity). The statistical significance of differences was evaluated by one-way ANOVA, *p<0.05, **p<0.01, ***p<0.001, for all conditions relative to the ethanol blank, n=3
# The assay for RdRP activity was outsourced to BPS Biosciences ([…], California, USA) using the following protocol. […] The RdRP reactions were performed in triplicate at 37° C. for 60 min in a 10 μl mixture containing assay buffer, RNA duplex, ATP substrate and enzyme, and the test compound. The reactions were carried out in wells of 384-well Optiplate (PerkinElmer). After enzymatic reactions, 10 μl of anti-Dig Acceptor beads (PerkinElmer, diluted 1:500 with lx detection buffer) were added to the reaction mix. After brief shaking, the plate was incubated for 30 min. […] The values of % activity versus the concentrations of the compound tested were then plotted using non-linear regression analysis of a Sigmoidal dose-response curve generated with the equation Y=B+(T−B)/1+10^((LogEC50−X)×Hill Slope), where Y=percent activity, B=minimum percent activity, T=maximum percent activity, X=logarithm of compound and Hill Slope=slope factor or Hill coefficient. The IC50 value was determined as the concentration causing half-maximal activity.
# [4] = target: SARS-CoV-2 3CL^Pro (M^pro) (Severe acute respiratory syndrome coronavirus 2 (2019-nCoV) (SARS-CoV-2), UniProt P0DTD1); assay: Enzymatic assay for M^pro (3CL Protease, MBP-tagged assay kit); type: biochemical; settings: for inhibition at 0.2 µM: 2×10^−7 M, read-out: M^pro enzyme inhibition
# Procedure: FIG. 1.3A and 1.3B illustrate the enzyme inhibition by the selected sterols and secosteroids. […] Min=negative control without any enzyme (0% enzyme activity), Max=positive control with enzyme and substrate (100% enzyme activity). […] The statistical significance of differences was evaluated by one-way ANOVA, *p<0.05, **p<0.01, ***p<0.001, for all conditions relative to the ethanol blank, n=3. FIG. 1.3B illustrates the RdRP enzyme activity inhibition by selected sterols and secosteroids. […] Min=negative control without any enzyme (0% enzyme activity), Max=positive control with enzyme and substrate (100% enzyme activity). The statistical significance of differences was evaluated by one-way ANOVA, *p<0.05, **p<0.01, ***p<0.001, for all conditions relative to the ethanol blank, n=3
# The SARS-CoV-2 3CL^Pro (M^pro), MBP-tagged Assay Kit (BPS Biosciences, San Diego, CA, USA) was used to measure 3CL Protease (M^pro) activity for screening and profiling applications. The 3CL inhibitor GC376 was included as a positive control and also used as a standard. The assay was performed according to the protocol provided by the manufacturer with the concentration of compounds tested being 10^−7 M.
# [5] = pathway: Host Interactions with HIV factors
# [6] = pathway: Host Interactions with Influenza Factors
# [7] = pathway: Influenza Viral RNA Transcription & Replication
# [8] = read-out: IC50 for inhibition of the enzyme activity of RdRP
compound,measurement,setting,value
"C=C1/C(=C\C=C2/CCC[C@]3(C)[C@@H]([C@H](C)CCCC(C)(C)O)CC[C@@H]23)C[C@@H](O)C[C@@H]1O [1,25(OH)2D3, (3S,5Z,7E)-9,10-secocholesta-5,7,10(19)-trien-1,3,25-triol, reference compound]",GSEA Direction,[1],^..
same,GSEA NES (Normalized Enriched Score),[1],^..
same,GSEA NES (Normalized Enriched Score),[1]; pathway: HIV Life Cycle,−2.503
same,GSEA Direction,[1]; [5],^..
same,GSEA NES (Normalized Enriched Score),[1]; [5],^..
same,GSEA Direction,[1]; [6],^..
same,GSEA NES (Normalized Enriched Score),[1]; [6],^..
same,GSEA Direction,[1]; [7],^..
same,GSEA NES (Normalized Enriched Score),[1]; [7],^..
same,GSEA NES (Normalized Enriched Score),[1]; pathway: Late Phase of HIV Life Cycle,−2.658
same,GSEA NES (Normalized Enriched Score),[1]; pathway: Viral Messenger RNA Synthesis,−2.405
same,GSEA NES (Normalized Enriched Score),[1]; pathway: Viral mRNA Translation,−3.601
same,toxicity and calcemic activity,[2],calcemic
"C=C1CCC(O)CC1=CC=C1CCCC2(C)C1CCC2C(C)(O)C=CC(C)C(C)C (stereo not shown) [20(OH)D2, 20-hydroxyvitamin D2]",toxicity and calcemic activity,[2],not toxic and non-calcemic
"CC(C)CCC[C@](C)(O)[C@H]1CC[C@H]2C3=CC=C4C[C@@H](O)CC[C@]4(C)[C@H]3CC[C@@]21C [20S(OH)7DHC, Cholesta-5,7-dien-3β,20-diol]",IC50,[3]; [8],4.7 µM
same,inhibition at 0.2 µM,[4],10 to 19%
"C=C1CC[C@H](O)C/C1=C/C=C1\CCC[C@@]2(C)[C@H]1CC[C@@H]2[C@@](C)(O)CCCC(C)C [20S(OH)D3, (3S,5Z,7E)-9,10-secocholesta-5,7,10(19)-trien-3,20-diol]",IC50,[3],2.6 µM
"CC(C)CCC[C@](C)(O)[C@H]1CC[C@H]2C3=CC=C4C[C@@H](O)CC[C@@]4(C)[C@@H]3CC[C@@]21C [20S(OH)L3, 9β,10α-cholesta-5,7-diene-3β,20-diol]",IC50,[3]; [8],1 µM
"CC(C)[C@@H](O)CC[C@@H](C)[C@H]1CC[C@H]2C3=CC=C4C[C@@H](O)CC[C@@]4(C)[C@@H]3CC[C@]12C [24(OH)L3, 9β,10α-cholesta-5,7-diene-3β,24-diol]",IC50,[3]; [8],2.5 µM
same,inhibition at 0.2 µM,[4],10 to 19%
"C[C@H](CCCC(C)(C)O)[C@H]1CC[C@H]2C3=CC=C4C[C@@H](O)CC[C@@]4(C)[C@@H]3CC[C@]12C [25(OH)L3, 9β,10α-cholesta-5,7-diene-3β,25-diol]",IC50,[3]; [8],0.5 µM
same,inhibition at 0.2 µM,[4],10 to 19%
"(3S,5Z,7E)-9,10-secocholesta-5,7,10(19)-trien-3,25-diol [25(OH)D3, reference compound]",IC50,[3]; [8],1.3 µM
same,toxicity and calcemic activity,[2],calcemic
same,inhibition of M^pro (in words),[4]; 100 nM,significant inhibition
